Data reported in ChEMBL document CHEMBL1143263, “HY253, a novel compound isolated from Aralia continentalis, induces apoptosis via cytochrome c-mediated intrinsic pathway in HeLa cells” (Bioorg Med Chem Lett, 2009).
Calls of active or inactive are those of the source. The rule behind the calls is not given here.

Legend:
Format in all cases: functional, cell-based
HeLa [1] = test: Induction of apoptosis in human HeLa cells assessed as increase in pro-apoptotic Bak protein at 100 uM after 24 hrs by Western blot
HeLa [2] = test: Induction of apoptosis in human HeLa cells assessed as cytochrome C release from mitochondria at 100 uM after 24 hrs by confocal microscopy
HeLa [3] = test: Antiproliferative activity against human HeLa cells after 48 hrs by MTT assay
HeLa [4] = test: Induction of apoptosis in human HeLa cells assessed as fragmented apoptotic bodies at 100 uM after 24 hrs by DAPI staining
HeLa [5] = test: Induction of apoptosis in human HeLa cells at 100 uM after 24 hrs by TUNEL assay
HeLa [6] = test: Induction of apoptosis in human HeLa cells at 100 uM after 48 hrs by TUNEL assay
HeLa [7] = test: Induction of apoptosis in human HeLa cells assessed as caspase-8 activation at 100 uM by Western blot
HeLa [8] = test: Induction of apoptosis in human HeLa cells assessed as caspase-9 activation at 100 uM by Western blot
HeLa [9] = test: Induction of apoptosis in human HeLa cells assessed as caspase-3 activation at 100 uM by Western blot
HeLa [10] = test: Induction of apoptosis in human HeLa cells assessed as PARP cleavage at 100 uM by Western blot
HeLa [11] = test: Induction of apoptosis in human HeLa cells assessed as increase in pro-apoptotic Bax protein at 100 uM after 24 hrs by Western blot

- IC50 (HeLa [3]): 81.5 µM
Compound: C=CC1CCC2(O)C(C=C)(C1)CC1(O)CC(O)C=CC12O (configuration not stated)
- Activity (HeLa [1]): Active
- Activity (HeLa [2]): Active
- Activity (HeLa [3]): Dose-dependent effect
- Activity (HeLa [4]): Active
- Activity (HeLa [5]): Active
- Activity (HeLa [6]): Active
- Activity (HeLa [7]): Active
- Activity (HeLa [8]): Active
- Activity (HeLa [9]): Active
- Activity (HeLa [10]): Active
- Activity (HeLa [11]): Active
